pIC50: −log10 of the molar value.
Test system: SYO-1 complex spheroid growth, percent test/control
Assay: Anticancer human tumor SYO-1 cell line growth inhibition [Asc];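 further: compound exposure lasted 7 days after spheroids grew 3 days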;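 on viability, T/C: 100% = DMSO vehicle control viability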
Conditions: for pIC50: curve of first compound; for viability, T/C: stronger effect = lower value
Summary of the method: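 Stromal components (HUVEC and hMSC) are co-assembled with the cancer cells into multicellular spheroids. Drugs are then added singly or paired, at concentrations falling by half-log increments from a clinically achievable maximum, capped at 10 microM without known Cmax.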

[1] = second compound 0.01 µM, first compound 0.00316 µM
[2] = second compound 0.01 µM, first compound 0.01 µM
[3] = second compound 0.01 µM, first compound 0.0316 µM
[4] = second compound 0.01 µM, first compound 0.1 µM
[5] = second compound 0.01 µM, first compound 0.316 µM
[6] = second compound 0.01 µM, first compound 1 µM
[7] = second compound 0.0316 µM, first compound 0.00316 µM
[8] = second compound 0.0316 µM, first compound 0.01 µM
[9] = second compound 0.0316 µM, first compound 0.0316 µM
[10] = second compound 0.0316 µM, first compound 0.1 µM
[11] = second compound 0.0316 µM, first compound 0.316 µM
[12] = second compound 0.0316 µM, first compound 1 µM
[13] = second compound 0.1 µM, first compound 0.00316 µM
[14] = second compound 0.1 µM, first compound 0.01 µM
[15] = second compound 0.1 µM, first compound 0.0316 µM
[16] = second compound 0.1 µM, first compound 0.1 µM
[17] = second compound 0.1 µM, first compound 0.316 µM
[18] = second compound 0.1 µM, first compound 1 µM
[19] = second compound 0.316 µM, first compound 0.00316 µM
[20] = second compound 0.316 µM, first compound 0.01 µM
[21] = second compound 0.316 µM, first compound 0.0316 µM
[22] = second compound 0.316 µM, first compound 0.1 µM
[23] = second compound 0.316 µM, first compound 0.316 µM
[24] = second compound 0.316 µM, first compound 1 µM
[25] = second compound 1 µM, first compound 0.00316 µM
[26] = second compound 1 µM, first compound 0.01 µM
[27] = second compound 1 µM, first compound 0.0316 µM
[28] = second compound 1 µM, first compound 0.1 µM
[29] = second compound 1 µM, first compound 0.316 µM
[30] = second compound 1 µM, first compound 1 µM

pIC50 (second compound 0.01 µM)	pIC50 (second compound 0.0316 µM)	pIC50 (second compound 0.1 µM)	pIC50 (second compound 0.316 µM)	pIC50 (second compound 1 µM)	SMILES	viability, T/C [1] [%]	viability, T/C [2] [%]	viability, T/C [3] [%]	viability, T/C [4] [%]	viability, T/C [5] [%]	viability, T/C [6] [%]	viability, T/C [7] [%]	viability, T/C [9] [%]	viability, T/C [10] [%]	viability, T/C [15] [%]	viability, T/C [16] [%]	viability, T/C [21] [%]	viability, T/C [22] [%]	viability, T/C [27] [%]	viability, T/C [28] [%]	other results
< 6.00	< 6.00	< 6.00	< 6.00	< 6.00	CCN1CCN(Cc2ccc(Nc3ncc(F)c(-c4cc(F)c5nc(C)n(C(C)C)c5c4)n3)nc2)CC1 + CNC(C)C(=O)NC1CN(S(=O)(=O)c2cccc(S(=O)(=O)N3CCC4CCC(C(=O)NC(c5ccccc5)c5ccccc5)N4C(=O)C(NC(=O)C(C)NC)C3)c2)CCC2CCC(C(=O)NC(c3ccccc3)c3ccccc3)N2C1=O	110	114	108	111	109	116	101	105	110	96.7	106	108	100	103	110	viability, T/C [8]: 101%; viability, T/C [11]: 112%; viability, T/C [12]: 114%; viability, T/C [13]: 102%; viability, T/C [14]: 101%; viability, T/C [17]: 105%; viability, T/C [18]: 108%; viability, T/C [19]: 97.6%; viability, T/C [20]: 103%; viability, T/C [23]: 109%; viability, T/C [24]: 115%; viability, T/C [25]: 101%; viability, T/C [26]: 101%; viability, T/C [29]: 101%; viability, T/C [30]: 101%
< 7.00	< 7.00	< 7.00	< 7.00	< 7.00	Cn1ncnc1[C@H]1c2n[nH]c(=O)c3cc(F)cc(c23)N[C@@H]1c1ccc(F)cc1 + CNC(C)C(=O)NC1CN(S(=O)(=O)c2cccc(S(=O)(=O)N3CCC4CCC(C(=O)NC(c5ccccc5)c5ccccc5)N4C(=O)C(NC(=O)C(C)NC)C3)c2)CCC2CCC(C(=O)NC(c3ccccc3)c3ccccc3)N2C1=O	103	91.8	76.8	82.9	–	–	103	75.8	86.3	75.4	86.3	66.8	86.4	78.9	85.7	viability, T/C (second compound 0.01 µM, first compound 0.000316 µM): 107%; viability, T/C (second compound 0.01 µM, first compound 0.001 µM): 106%; viability, T/C (second compound 0.0316 µM, first compound 0.000316 µM): 101%; viability, T/C (second compound 0.0316 µM, first compound 0.001 µM): 102%; viability, T/C [8]: 98.3%; viability, T/C (second compound 0.1 µM, first compound 0.000316 µM): 108%; viability, T/C (second compound 0.1 µM, first compound 0.001 µM): 93.6%; viability, T/C [13]: 96.8%; viability, T/C [14]: 93.4%; viability, T/C (second compound 0.316 µM, first compound 0.000316 µM): 112%; viability, T/C (second compound 0.316 µM, first compound 0.001 µM): 103%; viability, T/C [19]: 95%; viability, T/C [20]: 92.1%; viability, T/C (second compound 1 µM, first compound 0.000316 µM): 98.2%; viability, T/C (second compound 1 µM, first compound 0.001 µM): 107%; viability, T/C [25]: 96.3%; viability, T/C [26]: 93.6%
5.33	5.35	5.36	5.37	5.41	O=C(c1cc(Cc2n[nH]c(=O)c3ccccc23)ccc1F)N1CCN(C(=O)C2CC2)CC1 + CNC(C)C(=O)NC1CN(S(=O)(=O)c2cccc(S(=O)(=O)N3CCC4CCC(C(=O)NC(c5ccccc5)c5ccccc5)N4C(=O)C(NC(=O)C(C)NC)C3)c2)CCC2CCC(C(=O)NC(c3ccccc3)c3ccccc3)N2C1=O	–	–	99.8	95.9	105	94.6	–	104	96.8	105	95.4	98.6	94.7	97.4	102	viability, T/C (second compound 0.01 µM, first compound 3.16 µM): 71.9%; viability, T/C (second compound 0.01 µM, first compound 10 µM): 9.58%; viability, T/C [11]: 94.2%; viability, T/C [12]: 93.6%; viability, T/C (second compound 0.0316 µM, first compound 3.16 µM): 67.5%; viability, T/C (second compound 0.0316 µM, first compound 10 µM): 8.65%; viability, T/C [17]: 103%; viability, T/C [18]: 93.5%; viability, T/C (second compound 0.1 µM, first compound 3.16 µM): 66.3%; viability, T/C (second compound 0.1 µM, first compound 10 µM): 8.36%; viability, T/C [23]: 99.8%; viability, T/C [24]: 96.4%; viability, T/C (second compound 0.316 µM, first compound 3.16 µM): 65.8%; viability, T/C (second compound 0.316 µM, first compound 10 µM): 5.64%; viability, T/C [29]: 90.3%; viability, T/C [30]: 91.7%; viability, T/C (second compound 1 µM, first compound 3.16 µM): 59.9%; viability, T/C (second compound 1 µM, first compound 10 µM): 5.84%
< 6.00	< 6.00	< 6.00	< 6.00	< 6.00	O=C(c1ccc(F)c(F)c1Nc1ccc(I)cc1F)N1CC(O)([C@@H]2CCCCN2)C1 + CNC(C)C(=O)NC1CN(S(=O)(=O)c2cccc(S(=O)(=O)N3CCC4CCC(C(=O)NC(c5ccccc5)c5ccccc5)N4C(=O)C(NC(=O)C(C)NC)C3)c2)CCC2CCC(C(=O)NC(c3ccccc3)c3ccccc3)N2C1=O	97.8	105	102	98.1	97.6	103	106	95.2	95.2	105	92.1	99.6	96	113	98.4	viability, T/C [8]: 106%; viability, T/C [11]: 95%; viability, T/C [12]: 94.5%; viability, T/C [13]: 99.5%; viability, T/C [14]: 106%; viability, T/C [17]: 96.9%; viability, T/C [18]: 93.6%; viability, T/C [19]: 113%; viability, T/C [20]: 104%; viability, T/C [23]: 99.8%; viability, T/C [24]: 97.8%; viability, T/C [25]: 97.7%; viability, T/C [26]: 103%; viability, T/C [29]: 92.4%; viability, T/C [30]: 91.2%
